The record followed here is patent US11214572B2, “7-site substituted pyrrole triazine compounds or pharmaceutically acceptable salts thereof, and preparation method thereof and uses thereof” (SHANGHAI INSTITUTE OF MATERIA MEDICA, CHINESE ACADEMY OF …, priority 2017, dated 2022).

A word on the IC50: it is the concentration needed to halve the response being measured. A low value points to inhibition by little substance. Usually AUC(0-t) stands for the area under the concentration-time curve up to a stated or last time point. The low end stands for less exposure, the high end for more exposure. As usually defined, the MRT is the average time that molecules of a dose stay in the body. As usually defined, the AUC(0-inf) is total exposure, with the tail of the curve extrapolated. A higher AUC(0-inf) goes with more exposure. As a reminder, the clearance is a measure of how efficiently the substance is removed, as volume per time. Lower therefore signals a low capacity for elimination. A word on the half-life: it is the time needed for the level to fall by half in the phase considered. Read a high half-life as slow loss. The term Vss denotes a proportionality between amount in the body and measured concentration, not a real space. Lower therefore signals confinement near the circulation.

One series deals with PI3Kδ (Homo sapiens, UniProt O00329). The series can be described thus: PI3K kinase activity, δ isoform. The conditions noted are these: for inhibition at 0.02 µM: read-out: IH (%) @ 20 nM, δ; for selectivity for PI3Kδ (in words): versus other PI3K isoforms, from Tables 1 and 2.
In another series the target is PI3Kγ (Homo sapiens, UniProt P48736). In words: PI3K kinase activity, γ isoform.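 As to all read-outs here: kinase reaction run in 384-well plates, with inhibition normalised between the 0% and 100% reference reactions. IC50 derived from a ten-point, fourfold serial dilution series.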 The format is biochemical. The conditions noted are these: for inhibition at 0.1 µM: compound 100 nM, read-out: IH (%) @ 100 nM, γ.
The next series deals with PI3Kβ (Homo sapiens, UniProt P42338). The series can be described thus: PI3K kinase activity, β isoform.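 As to all read-outs here: kinase reaction containing 1% DMSO, read as an emission ratio, with inhibition scaled between the 0% and 100% control ratios. IC50 values come from a ten-point fourfold dilution series.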 The conditions noted are these: for inhibition at 0.1 µM: read-out: IH (%) @ 100 nM, β.
The next series concerns the target PI3Kα (Homo sapiens, UniProt P42336). In words: PI3K kinase activity, α isoform. The conditions noted are these: for inhibition at 0.02 µM: read-out: IH (%) @ 20 nM, α.
Series [1] can be described thus: Preliminary pharmacokinetic test, intravenous injection. The format is in vivo, SD rats. The conditions noted are these: rats, intravenous injection 5 mg/kg, tested as monomesylate. The protocol:
(§1) 1. 14 healthy SD rats, male, weigh 200-220 g, were taken to be randomly divided into 4 groups, 3-4 in each group, and were administered the tested compound P-17 and compound CYH33 (compared with compound P-17, missing a methyl group on 7-position) via intragastric administration (10 mg/kg) and intravenous injection (5 mg/kg) respectively, the specific arrangements are shown in the following table 3:
(§2) The rats were fasted for 12 h before experiment, water was taken freely. The rats were fed 2 h after dosing.
Dosing via intravenous: 5 min, 0.25 h, 0.5 h, 1.0 h, 2.0 h, 4.0 h, 6.0 h, 8.0 h, and 24 h after dosing.
(§3) At the above setting time points, 0.3 ml of venous blood was taken from the retroorbital venous plexus of the rat, and placed in a heparinized test tube, centrifuged at 11,000 rpm for 5 min, then the plasma was separated, and frozen in a refrigerator at −20° C.
(§4) LC/MS/MS method was used to determine the concentration of the compounds in the plasma of rats.
(§5) The non-compartment model of Phoenix 1.3 software (Pharsight Corporation, USA) was used to calculate the pharmacokinetic parameters after dosing.

A short description of series [2]: Preliminary pharmacokinetic test, intragastric administration. The format is in vivo, SD rats. The conditions noted are these: rats, 10 mg/kg versus 5 mg/kg intravenous; monomesylate. The protocol: as §1, §2
Dosing via intragastric administration: 0.25 h, 0.5 h, 1.0 h, 2.0 h, 3.0 h, 4.0 h, 6.0 h, 8.0 h, and 24 h after dosing.
as §3, §4, §5

Where [3] appears, read: male, SD, rat, plasma, iv, 5 mg/kg, individual animal.

“And” between values parts separate entries of the source, which are not always exact repeats. Equal values may be shown once. “Also recorded” adds a separate entry of the source. Read-outs that look alike come from different tables or passages of the source.

Chain of PI3Kα (P42336 whole entry, canonical isoform): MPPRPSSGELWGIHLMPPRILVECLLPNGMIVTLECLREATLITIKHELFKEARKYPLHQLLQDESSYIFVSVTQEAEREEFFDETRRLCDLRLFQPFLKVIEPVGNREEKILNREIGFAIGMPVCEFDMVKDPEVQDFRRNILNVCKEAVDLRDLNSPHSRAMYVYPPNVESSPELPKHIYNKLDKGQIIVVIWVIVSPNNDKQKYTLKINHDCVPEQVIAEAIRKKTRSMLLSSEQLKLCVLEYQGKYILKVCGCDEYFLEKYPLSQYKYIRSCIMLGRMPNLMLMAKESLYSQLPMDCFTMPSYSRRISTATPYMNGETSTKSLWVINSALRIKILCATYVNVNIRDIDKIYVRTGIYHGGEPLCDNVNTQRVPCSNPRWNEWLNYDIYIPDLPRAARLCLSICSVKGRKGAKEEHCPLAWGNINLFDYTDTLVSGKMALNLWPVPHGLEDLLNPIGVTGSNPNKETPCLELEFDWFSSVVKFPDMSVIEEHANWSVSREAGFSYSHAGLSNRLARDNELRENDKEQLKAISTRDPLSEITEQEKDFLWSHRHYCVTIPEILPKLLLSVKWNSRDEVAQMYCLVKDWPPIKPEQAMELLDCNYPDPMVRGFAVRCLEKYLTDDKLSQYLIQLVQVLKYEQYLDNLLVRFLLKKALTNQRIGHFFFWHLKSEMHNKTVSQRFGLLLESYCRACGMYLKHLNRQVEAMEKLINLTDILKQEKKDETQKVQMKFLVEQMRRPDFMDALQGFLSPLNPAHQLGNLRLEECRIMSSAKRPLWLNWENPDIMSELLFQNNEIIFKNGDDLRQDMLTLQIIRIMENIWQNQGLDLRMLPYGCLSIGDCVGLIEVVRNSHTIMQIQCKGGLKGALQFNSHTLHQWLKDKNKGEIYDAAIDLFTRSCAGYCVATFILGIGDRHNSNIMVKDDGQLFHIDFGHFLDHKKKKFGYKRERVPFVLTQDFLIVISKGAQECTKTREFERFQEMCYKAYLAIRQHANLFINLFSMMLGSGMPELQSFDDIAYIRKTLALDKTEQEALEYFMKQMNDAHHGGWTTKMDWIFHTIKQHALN
Chain of PI3Kα (P27986 whole entry partner, canonical isoform): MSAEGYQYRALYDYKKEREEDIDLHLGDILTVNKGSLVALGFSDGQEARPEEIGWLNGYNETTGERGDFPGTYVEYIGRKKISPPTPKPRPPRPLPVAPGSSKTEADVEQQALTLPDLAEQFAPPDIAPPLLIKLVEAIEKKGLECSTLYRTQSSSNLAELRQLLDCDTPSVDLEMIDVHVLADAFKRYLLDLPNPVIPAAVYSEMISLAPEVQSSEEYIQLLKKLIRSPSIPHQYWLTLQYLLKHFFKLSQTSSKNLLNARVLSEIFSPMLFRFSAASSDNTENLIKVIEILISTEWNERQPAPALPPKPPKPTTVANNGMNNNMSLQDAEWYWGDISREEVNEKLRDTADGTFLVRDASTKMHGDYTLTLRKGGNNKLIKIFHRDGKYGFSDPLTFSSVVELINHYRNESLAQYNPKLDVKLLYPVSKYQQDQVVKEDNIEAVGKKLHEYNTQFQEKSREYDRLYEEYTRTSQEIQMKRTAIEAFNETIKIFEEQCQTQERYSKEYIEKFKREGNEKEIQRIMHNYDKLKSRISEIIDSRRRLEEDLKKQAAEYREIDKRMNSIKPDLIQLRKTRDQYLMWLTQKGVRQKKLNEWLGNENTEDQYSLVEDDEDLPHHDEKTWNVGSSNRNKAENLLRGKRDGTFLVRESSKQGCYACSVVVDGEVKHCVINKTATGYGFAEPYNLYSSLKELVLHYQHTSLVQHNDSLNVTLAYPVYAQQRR
Chain of PI3Kδ (O00329 whole entry, canonical isoform): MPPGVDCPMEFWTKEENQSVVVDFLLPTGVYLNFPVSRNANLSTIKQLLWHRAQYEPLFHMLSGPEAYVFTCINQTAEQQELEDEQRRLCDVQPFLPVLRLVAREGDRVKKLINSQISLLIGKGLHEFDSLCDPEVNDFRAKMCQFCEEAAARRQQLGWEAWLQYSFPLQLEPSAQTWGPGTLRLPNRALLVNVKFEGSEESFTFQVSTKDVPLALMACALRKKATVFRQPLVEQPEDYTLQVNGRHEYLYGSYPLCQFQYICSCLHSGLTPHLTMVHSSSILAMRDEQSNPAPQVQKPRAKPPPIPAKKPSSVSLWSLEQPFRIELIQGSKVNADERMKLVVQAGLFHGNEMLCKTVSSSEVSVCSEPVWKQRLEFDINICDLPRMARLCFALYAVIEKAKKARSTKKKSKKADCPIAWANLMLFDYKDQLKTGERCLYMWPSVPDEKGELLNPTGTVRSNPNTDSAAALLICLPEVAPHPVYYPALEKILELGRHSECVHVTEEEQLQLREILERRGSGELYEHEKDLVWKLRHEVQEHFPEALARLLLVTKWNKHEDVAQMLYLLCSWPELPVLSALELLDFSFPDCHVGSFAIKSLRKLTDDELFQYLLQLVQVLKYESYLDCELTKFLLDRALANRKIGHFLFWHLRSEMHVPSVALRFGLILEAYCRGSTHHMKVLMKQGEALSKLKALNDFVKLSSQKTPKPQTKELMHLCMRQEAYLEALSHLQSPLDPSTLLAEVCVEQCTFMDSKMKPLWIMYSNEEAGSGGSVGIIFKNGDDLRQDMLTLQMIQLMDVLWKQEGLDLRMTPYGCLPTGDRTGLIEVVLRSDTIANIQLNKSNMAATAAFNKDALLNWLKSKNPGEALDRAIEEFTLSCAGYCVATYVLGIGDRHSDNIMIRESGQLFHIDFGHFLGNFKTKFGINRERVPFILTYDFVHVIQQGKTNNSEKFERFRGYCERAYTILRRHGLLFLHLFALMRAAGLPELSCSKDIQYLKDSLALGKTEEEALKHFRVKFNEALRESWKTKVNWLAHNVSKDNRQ
Chain of PI3Kδ (P27986 whole entry partner, canonical isoform): as the sequence (P27986 whole entry partner, canonical isoform) above
Chain of PI3Kβ (P42338 whole entry, canonical isoform): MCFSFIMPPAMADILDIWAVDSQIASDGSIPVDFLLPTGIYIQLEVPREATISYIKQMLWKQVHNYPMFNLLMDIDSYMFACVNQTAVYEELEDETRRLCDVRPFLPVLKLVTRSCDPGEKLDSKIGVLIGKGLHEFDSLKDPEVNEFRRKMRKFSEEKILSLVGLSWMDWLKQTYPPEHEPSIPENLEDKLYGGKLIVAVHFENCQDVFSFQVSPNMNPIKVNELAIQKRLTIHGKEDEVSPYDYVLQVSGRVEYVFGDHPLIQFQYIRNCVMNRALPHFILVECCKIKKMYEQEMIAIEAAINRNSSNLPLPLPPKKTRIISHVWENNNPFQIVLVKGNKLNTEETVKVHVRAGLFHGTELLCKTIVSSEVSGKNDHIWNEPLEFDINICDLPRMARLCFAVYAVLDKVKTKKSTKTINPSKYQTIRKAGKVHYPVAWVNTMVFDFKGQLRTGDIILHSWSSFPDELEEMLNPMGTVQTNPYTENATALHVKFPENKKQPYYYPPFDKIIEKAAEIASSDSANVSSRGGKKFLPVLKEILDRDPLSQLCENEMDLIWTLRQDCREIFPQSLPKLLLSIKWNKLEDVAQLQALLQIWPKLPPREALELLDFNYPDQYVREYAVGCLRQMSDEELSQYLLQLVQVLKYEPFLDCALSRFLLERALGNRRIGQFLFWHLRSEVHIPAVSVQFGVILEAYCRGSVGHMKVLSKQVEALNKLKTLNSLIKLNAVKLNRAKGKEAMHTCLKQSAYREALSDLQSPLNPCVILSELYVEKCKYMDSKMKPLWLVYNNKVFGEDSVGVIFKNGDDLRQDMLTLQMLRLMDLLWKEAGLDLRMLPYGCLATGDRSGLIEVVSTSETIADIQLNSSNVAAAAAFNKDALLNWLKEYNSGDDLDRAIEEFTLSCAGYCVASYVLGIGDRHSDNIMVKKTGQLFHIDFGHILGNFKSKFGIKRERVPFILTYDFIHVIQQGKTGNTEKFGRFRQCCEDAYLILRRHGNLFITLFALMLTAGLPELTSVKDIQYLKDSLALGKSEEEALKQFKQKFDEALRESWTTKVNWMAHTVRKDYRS
Chain of PI3Kβ (P27986 whole entry partner, canonical isoform): as the sequence (P27986 whole entry partner, canonical isoform) above
Chain of PI3Kγ (P48736 whole entry, canonical isoform): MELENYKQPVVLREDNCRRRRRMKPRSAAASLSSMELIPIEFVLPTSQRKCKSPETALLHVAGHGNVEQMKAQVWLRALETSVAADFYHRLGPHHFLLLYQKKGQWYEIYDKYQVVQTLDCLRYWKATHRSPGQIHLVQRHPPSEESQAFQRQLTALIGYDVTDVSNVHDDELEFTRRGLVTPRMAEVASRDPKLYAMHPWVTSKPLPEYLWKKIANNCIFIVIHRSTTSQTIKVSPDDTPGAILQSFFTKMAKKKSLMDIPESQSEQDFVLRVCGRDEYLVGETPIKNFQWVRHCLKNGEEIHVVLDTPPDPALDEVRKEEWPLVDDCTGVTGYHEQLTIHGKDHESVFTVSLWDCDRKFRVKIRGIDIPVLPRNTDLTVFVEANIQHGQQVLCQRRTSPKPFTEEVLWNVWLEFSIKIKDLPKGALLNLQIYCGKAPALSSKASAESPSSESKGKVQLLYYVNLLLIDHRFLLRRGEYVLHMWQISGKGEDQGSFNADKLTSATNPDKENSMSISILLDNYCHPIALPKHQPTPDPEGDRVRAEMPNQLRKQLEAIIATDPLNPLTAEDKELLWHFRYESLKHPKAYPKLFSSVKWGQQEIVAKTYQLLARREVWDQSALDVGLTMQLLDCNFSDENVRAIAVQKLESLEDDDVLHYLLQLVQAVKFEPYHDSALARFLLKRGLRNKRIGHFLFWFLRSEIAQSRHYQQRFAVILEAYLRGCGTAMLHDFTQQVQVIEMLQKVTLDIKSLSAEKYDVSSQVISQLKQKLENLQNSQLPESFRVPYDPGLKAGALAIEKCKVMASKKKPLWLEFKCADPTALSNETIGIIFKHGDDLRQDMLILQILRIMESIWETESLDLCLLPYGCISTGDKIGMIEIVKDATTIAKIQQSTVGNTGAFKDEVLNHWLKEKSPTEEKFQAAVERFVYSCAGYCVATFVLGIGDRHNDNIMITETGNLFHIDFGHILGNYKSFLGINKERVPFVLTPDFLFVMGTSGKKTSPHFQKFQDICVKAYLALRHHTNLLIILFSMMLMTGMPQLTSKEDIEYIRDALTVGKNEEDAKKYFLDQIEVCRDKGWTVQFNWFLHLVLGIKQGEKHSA
Description for PI3Kα: (§6) Concentration setting for preliminary screening: the compounds to be tested were dissolved in DMSO (dimethyl sulfoxide) to 100 μM or 10 μM as storage solutions; for each one, 2 μL was taken to be added to 48 μL of 1× Reaction Buffer to obtain a 4 μM or 400 nM compound solution containing 4% DMSO. After well mixing, the mixture was diluted with 4% DMSO in 1× Reaction Buffer to obtain a 4 μM or 400 nM compound solution. 5 μL of each diluted solution was taken to be added to a 384-well plate, so that the final concentration of the compound in the final 20 μL of the kinase reaction system was 1 μM and 100 nM or 100 nM and 20 nM, respectively, and containing 1% DMSO.
(§7) The compounds to be tested were dissolved in DMSO to 1 mM or 10 mM as working solutions, 1 μL of each working solution was taken to be added to 24 μl of 1× Kinase Buffer A to obtain a 40 μM or 400 μM compound solution containing 4% DMSO. The compound solution was diluted by 4× gradient in sequence, 10 dilution concentrations.
(§8) Calculation of the Inhibition Rate • The inhibitory rate was calculated by the following formula: Inhibitory rate=(ERsample−ER0%)/(ER100%−ER0%)×100%
Description for PI3Kβ: as §6, §7, §8
Description for PI3Kγ: as §6, §7, §8
Description for PI3Kδ: as §6, §7, §8

Take `Cc1c(CN2CCN(C(=O)C(C)(C)O)CC2)cc2c(N3CCOCC3)nc(-c3cnc(N)cc3C(F)(F)F)nn12` [Compound P-13]: the inhibition at 0.02 µM on PI3Kδ was determined as 41.2%; at PI3Kα, 30.5%. Besides, the inhibition at 0.1 µM came to 2.16% on PI3Kγ and 2.34% on PI3Kβ.
As to `Cc1c(CN2CCN(S(C)(=O)=O)CC2)cc2c(N3CCOCC3)nc(-c3cnc(NC(=O)NC(C)C)cc3C(F)(F)F)nn12` [Compound P-22], the IC50 against PI3Kδ amounted to 29.5 nM; at PI3Kγ, 311 nM; at PI3Kβ it was 1540 nM; against PI3Kα it was 122 nM. Besides, the results for the inhibition at 0.02 µM on PI3Kδ and on PI3Kα were 46.5% and 50%, respectively. Further, the inhibition at 0.1 µM on PI3Kγ came out at 30.3%; on PI3Kβ, 15.1%.
On to `CS(=O)(=O)N1CCN(Cc2cc3nc(-c4cccc5[nH]ncc45)nc(N4CCOCC4)c3s2)CC1` [GDC0941, 2-(1H-indazol-4-yl)-6-[[4-(methylsulfonyl)-1-piperazinyl]methyl]-4-(4-morpholinyl)thieno[3,2-D]pyrimidine, reference compound], for which the inhibition at 0.02 µM on PI3Kδ turned out to be 56.3%; at PI3Kα, 41.7%. Moreover, at PI3Kβ, the inhibition at 0.1 µM worked out at 21.1%.
As to `CCNC(=O)Nc1cc(C(F)(F)F)c(-c2nc(N3CCOCC3)c3cc(CN4CCN(S(C)(=O)=O)CC4)c(C)n3n2)cn1` [Compound P-21], the IC50 at PI3Kδ stood at 6.22 nM; against PI3Kγ it was 37.5 nM; against PI3Kβ, 139 nM; against PI3Kα, 21.8 nM. The inhibition at 0.02 µM is 107% on PI3Kδ and 89.3% on PI3Kα. In addition, the inhibition at 0.1 µM was 74.1% at PI3Kγ and 46.3% on PI3Kβ.
Take `COCCCNCc1cc2c(N3CCOCC3)nc(-c3cnc(N)cc3C(F)(F)F)nn2c1C` [Compound P-3]: the figures for the inhibition at 0.02 µM on PI3Kδ and at PI3Kα were 39.8% and 6.72%, respectively. For the same compound, the inhibition at 0.1 µM on PI3Kγ is 2.94%; at PI3Kβ, -0.12%.
Consider `Cc1c(CN2CCN(S(C)(=O)=O)CC2)cc2c(N3CCOCC3)nc(-c3cnc(NC(=O)NC4CC4)cc3C(F)(F)F)nn12` [Compound P-20], for which the concentration for half-maximal inhibition (IC50) was 3.73 nM against PI3Kδ, 36.6 nM on PI3Kγ, 124 nM against PI3Kβ and 10.8 nM on PI3Kα. Moreover, the inhibition at 0.02 µM was found to be 83.1% at PI3Kδ and 102% on PI3Kα. Besides, the inhibition at 0.1 µM on PI3Kγ was 68.3%; at PI3Kβ, 57.4%.
Take `Cc1c(CN2CCN(S(C)(=O)=O)CC2)cc2c(N3CCOC[C@@H]3C)nc(-c3cnc(N)cc3C(F)(F)F)nn12` [Compound P-10]: the IC50 on PI3Kδ turned out to be 79.7 nM; against PI3Kγ, 202 nM; against PI3Kβ, 1770 nM; on PI3Kα, 104 nM. Besides, the inhibition at 0.02 µM on PI3Kδ was 39.7%; at PI3Kα it was 80.5%. Also, the inhibition at 0.1 µM on PI3Kγ was found to be 32.1%; at PI3Kβ it was 7.84%.
With `Cc1c(CN2CCC(N(C)C)CC2)cc2c(N3CCOCC3)nc(-c3cnc(N)cc3C(F)(F)F)nn12` [Compound P-7], the IC50 against PI3Kδ is 27.6 nM; at PI3Kγ it was 15300 nM; against PI3Kβ, 3460 nM; against PI3Kα, 439 nM. Besides, the inhibition at 0.02 µM worked out at 53.6% at PI3Kδ and 3.6% at PI3Kα. In addition, on PI3Kδ, the “selectivity for PI3Kδ (in words)” value is listed as “selective inhibitory effect on PI3Kδ; also recorded: good selectivities for PI3Kδ”. Moreover, the results for the inhibition at 0.1 µM on PI3Kγ and at PI3Kβ were -7.96% and 3.43%, respectively.
For the compound `Cc1c(CN2CCN(C(=O)[C@H](C)O)CC2)cc2c(N3CCOCC3)nc(-c3cnc(N)cc3C(F)(F)F)nn12` [Compound P-14], the IC50 against PI3Kδ was found to be 85.6 nM; against PI3Kγ, 1950 nM; on PI3Kβ, 2650 nM; on PI3Kα it was 77.5 nM. Further, the inhibition at 0.02 µM worked out at 63.3% on PI3Kδ and 24.8% at PI3Kα. Moreover, the inhibition at 0.1 µM at PI3Kγ was determined as 6.83%; on PI3Kβ, 3.44%.
Turning to `CS(=O)(=O)N1CCN(Cc2cc3c(N4CCOCC4)nc(-c4cnc(N)cc4C(F)(F)F)nn3c2Cl)CC1` [Compound P-11], the IC50 at PI3Kδ came to 28.1 nM; on PI3Kγ it was 248 nM; against PI3Kβ, 1440 nM; against PI3Kα it was 21.3 nM. For the same compound, the results for the inhibition at 0.02 µM on PI3Kδ and at PI3Kα were 50.3% and 72.8%, respectively. Besides, the inhibition at 0.1 µM turned out to be 19.4% at PI3Kγ and 15.8% on PI3Kβ.
Consider `Cc1c(CN2CCN(S(C)(=O)=O)CC2)cc2c(N3CCOCC3)nc(-c3cnc(N)cc3C(F)(F)F)nn12` [Compound P-9], for which the IC50 against PI3Kδ was found to be 23.7 nM; against PI3Kγ, 283 nM; against PI3Kβ, 1190 nM; on PI3Kα it was 26.4 nM. Besides, the inhibition at 0.02 µM amounted to 51.2% on PI3Kδ and 68.9% at PI3Kα. The inhibition at 0.1 µM at PI3Kγ worked out at 31.4%; at PI3Kβ, 12.8%.
On to `Cc1c(CN2CCC(C(C)(C)O)CC2)cc2c(N3CCOCC3)nc(-c3cnc(N)cc3C(F)(F)F)nn12` [Compound P-5], for which, at PI3Kδ, the IC50 amounted to 19.6 nM, the inhibition at 0.02 µM was 53.2% and the “selectivity for PI3Kδ (in words)” value is listed as “selective inhibitory effect on PI3Kδ; also recorded: good selectivities for PI3Kδ”. Also, at PI3Kγ, the IC50 worked out at 4830 nM and the inhibition at 0.1 µM is -2.33%. Further, on PI3Kβ, half-maximal inhibition (IC50) required 1360 nM and the inhibition at 0.1 µM is 14.9%. At PI3Kα, the IC50 was 424 nM and the inhibition at 0.02 µM is -0.6%.
In the case of `COC(=O)Nc1cc(C(F)(F)F)c(-c2nc(N3CCOCC3)c3cc(CN4CCN(S(C)(=O)=O)CC4)cn3n2)cn1` [CYH33, reference compound], the AUC(0-t) in series [1] (male, SD, rat, plasma, iv, 5 mg/kg, Mean) came out at 3540 ng·h/mL. Further, the MRT in series [1] (male, SD, rat, plasma, iv, 5 mg/kg, Mean, read-out: MRT) is 1.31 h. In addition, in series [1] (setting [3]), the AUC(0-inf) is 2850 ng·h/mL, the AUC(0-t) was 2850 ng·h/mL, the clearance was 29.2 mL/min/kg and the half-life is 0.83 h. Besides, the MRT in series [1] (male, SD, rat, plasma, iv, 5 mg/kg, individual animal, read-out: MRT) turned out to be 1.1 h. The Vd in series [1] (male, SD, rat, plasma, iv, 5 mg/kg, individual animal, read-out: Vss) came out at 1.93 L/kg. In series [1] (Mean), the “AUC 0 − ∞” value was determined as 3559 ng·h/mL, the Cl stood at 24 mL/min/kg, the T1/2 is listed as 0.982 h and the Vss was found to be 1.843 L/kg. Further, in series [1] (individual animal, 5 mg/kg), the “AUC 0 − t” value was 3645 ng·h/mL and 4142 ng·h/mL; the “AUC 0 − ∞” value is 3655 ng·h/mL and 4172 ng·h/mL; the Cl was 22.8 mL/min/kg and 20 mL/min/kg; the MRT was 1.26 h and 1.57 h. For the same compound, in series [1] (individual animal, 5 mg/kg), the T1/2 is 0.95 h and 1.16 h; the Vss was 1.72 L/kg and 1.88 L/kg. The “F (absolute bioavailability)” value in series [2] was found to be 36.9%.
For the compound `Cc1c(CN2CCN(S(C)(=O)=O)CC2)cc2c(N3CCOCC3)nc(-c3cnc(NC(=O)Nc4ccc(F)cc4)cc3C(F)(F)F)nn12` [Compound P-23], the IC50 turned out to be 10.1 nM at PI3Kδ, 47.1 nM at PI3Kγ, 109 nM at PI3Kβ and 18.7 nM on PI3Kα. The inhibition at 0.02 µM at PI3Kδ worked out at 77.1%; on PI3Kα it was 77.9%. Also, the inhibition at 0.1 µM on PI3Kγ was 67%; on PI3Kβ it was 32.6%.
On to `Cc1c(CNCCCN(C)C)cc2c(N3CCOCC3)nc(-c3cnc(N)cc3C(F)(F)F)nn12` [Compound P-2], for which the IC50 is 36.6 nM at PI3Kδ, 37600 nM against PI3Kγ, 2140 nM against PI3Kβ and 321 nM at PI3Kα. Further, the inhibition at 0.02 µM on PI3Kδ was 46%; at PI3Kα, 18.7%. Further, the inhibition at 0.1 µM was 0.62% at PI3Kγ and 4.74% on PI3Kβ.
With `CCN1CCN(Cc2cc3c(N4CCOCC4)nc(-c4cnc(N)cc4C(F)(F)F)nn3c2C)CC1` [Compound P-6], at PI3Kδ, half-maximal inhibition (IC50) required 35.3 nM, the inhibition at 0.02 µM came to 41.4% and the “selectivity for PI3Kδ (in words)” value was “selective inhibitory effect on PI3Kδ; also recorded: good selectivities for PI3Kδ”. Also, at PI3Kγ, the IC50 came to 9870 nM and the inhibition at 0.1 µM is -4.8%. On PI3Kβ, the IC50 was 4570 nM and the inhibition at 0.1 µM came out at 11.8%. Further, at PI3Kα, the IC50 worked out at 624 nM and the inhibition at 0.02 µM is 69.7%.
